# Assay results reported in patent US8143241B2, “DNA damage repair inhibitors for treatment of cancer” (Kudos Pharmaceuticals Limited, priority 2003, dated 2012).
# Experiments:
# HeLa cells = test: Cell viability, HeLa cells exposed to PARP inhibitor and caffeine; conditions: 1 mM Caffeine plus KU0058684
# Description: Error bars represent standard errors of the mean.
# Caffiene was used to determine whether loss of ATM and ATR dependent DNA signalling pathways would induce sensitivity to PARP inhibition.
# PARP-2 = PARP-2 (Homo sapiens, UniProt Q9UGN5); test: Inhibition of poly(ADP-ribose) polymerase activity of PARP-2; assay type: biochemical
# vault PARP = vault PARP (Homo sapiens, UniProt Q9UKK3); test: Selectivity: vault PARP inhibition; assay type: biochemical; conditions: at concentrations up to 1 μM
# PARP-3 = PARP-3 (Homo sapiens, UniProt Q9Y6F1); test: Selectivity: PARP-3 inhibition; assay type: biochemical; conditions: at concentrations up to 1 μM
# Brca1 deficient ES cells = test: Clonogenic assay, continuous exposure, Brca1 deficient ES cells; assay type: cell-based, mouse
# Description: (§1) For measurement of sensitivity to chemical inhibitors, cell cultures e.g. ES cells or mouse embryonic fibroblasts, in exponential growth were trypsinised and seeded at various densities in 6-well plates onto confluent monolayer of Mitomycin C (MMC) inactivated mouse embryonic fibroblasts and, where appropriate, treated with inhibitors after 18 h. For continuous exposure, cells were re-fed every 4 days with fresh medium and inhibitor. For timed exposures, inhibitor was added for the specified period then cells were washed and re-fed with fresh medium. After 10-14 days, cells were washed with PBS, fixed in methanol and stained with crystal violet. Colonies containing greater than approximately 50 cells were counted. Experiments were performed at least three times in triplicate.
# Brca2 deficient ES cells = test: Clonogenic assay, continuous exposure, Brca2 deficient ES cells; assay type: cell-based, mouse
# Description: as §1
# [1] = system: RAD51 siRNA transfected HeLa cells; test: Clonogenic survival, HeLa cells with RAD51 RNAi silencing; assay type: cell-based, human; conditions: continuous treatment
# Description: Clonogenic survival curves of transfected HeLa cells under constant exposure to a range of concentrations of PARP inhibitor (KU0058684) for 12-14 days. […] SF50 for pSUPER-CFP-CONTROL transfected cells is >1×10^−5 M and is 1×10^−6 M for pSUPER-CFP-17/19/23 transfected cells.
# HeLa cells were transfected using FuGene (Roche, USA) according to the manufacturers instructions. For clonogenic survival assays, cells were co-transfected in 6 well plates with pSUPER and a vector expressing blasticidin resistance (pEF-Bsd, Invitrogen, USA) at a ratio of 10:1 (pSUPER: pEF-Bsd). Twenty-four hours after transfection, cells were plated into replica plates and this was followed by treatment with PARP inhibitors and blasticidin 48 hours post transfection.
# [2] = system: HeLa cells with BRCA1, BRCA2 and RAD51 silencing; test: Cell viability, HeLa cells with BRCA1, BRCA2 or RAD51 silencing; assay type: cell-based, human; conditions: five days
# Description: (§2) For cell viability assays, HeLa cells were co-transfected with pSUPER and pEFBsd in 96 well plates using FuGene (Roche, USA) according to the manufacturers instructions. Twenty-four hours after transfection, cells were plated into replica plates and this was followed by treatment with PARP inhibitors and blasticidin 48 hours post transfection. Media containing PARP inhibitors and blasticidin was replenished five days post-transfection and cell viability was measured at seven days using the 96 well plate CellTitre-Glo™ Luminescent Cell Viability Assay kit (Promega, USA, according to the manufacturers instructions).
# [3] = system: HeLa cells transfected with DSS1 and RPA siRNA plasmids; test: Cell viability, HeLa cells transfected with DSS1 and RPA siRNA plasmids; assay type: cell-based, human
# Description: as §2
# [4] = system: HeLa cells transfected with ATM, ATR, CHK1 or CHK2 silencing RNAi; test: Cell viability, HeLa cells transfected with ATM, ATR, CHK1 or CHK2 silencing RNAi; assay type: cell-based, human; conditions: five days
# Description: as §2
# [5] = system: Fancd2−/−, Fanca−/−, Fancc−/− and Fanca−/−c−/− fibroblasts; test: Clonogenic survival, Fanconi anaemia mouse fibroblasts; assay type: cell-based; conditions: continuous exposure 12-14 days
# Description: Mouse fibroblasts from wild-type, Fancd2^−/−, Fanca^−/−, Fancc^−/− and Fanca^−/−c^−/− animals were obtained from the Fanconi Anaemia Cell Repository, Oregon Health and Science University. These cells were maintained in DMEM, supplemented with FCS (10% v/v), glutamine and antibiotics. RAD54 and RAD52 Embryonic Stem (ES) cells were grown in DMEM, supplemented with FCS (15% v/v), glutamine, antibiotics, non-essential amino acids, 2-mercaptoethanol and Leukemia inhibitory Factor. HeLa cells (CCL-2) were obtained from ATCC (USA) and were maintained in DMEM, supplemented with FCS (10% v/v), glutamine and antibiotics.
# as §1
# Rad52 deficient ES cells = test: Clonogenic survival, Rad52 deficient ES cells; assay type: cell-based
# Description: as §1
# tankyrase = conditions: at concentrations up to 1 μM
# FT/pEBS7 ATM−/− cells = test: SRB cell growth assay, ATM deficient vs complemented cells; assay type: cell-based; conditions: FT/pEBS7 ATM−/− vs FT/pEBS7-Y25 ATM+/+
# Description: (§3) Cell growth was assessed using the sulforhodamine B (SRB) assay (Skehan, P. et al (1990) J. Natl. Cancer Inst. 82, 1107-1112) 2,000 cells were seeded into each well of a flat-bottomed 96-well microtiter plate in a volume of […] and incubated for 6 hours at 37° C. Cells were either replaced with media alone or with media containing PARP inhibitor or ATM inhibitor or both at a range of concentrations shown. Cells were then allowed to grow for a further 96 hours after which the media was removed and the cells fixed with […] of ice cold 10% (w/v) trichloroacetic acid. The plates were incubated at 4° C. for 20 minutes and then washed four times with water. Each well of cells was then stained with […] of 0.4% (w/v) SRB in 1% acetic acid for 20 minutes before washing four times with 1% acetic acid. Plates were then dried for 2 hours at room temperature. The dye from the stained cells was solubilized by the addition of […] of 10 mM Tris Base into each well. Plates were gently shaken and left at room temperature for 30 minutes before measuring the optical density at 564 nm on a Microquant microtiter plate reader.
# NBS1−/− fibroblast cells = test: SRB cell growth assay, NBS1 deficient fibroblasts vs MRC5; assay type: cell-based
# Description: as §3
# HT29 cells = test: SRB cell growth assay, ATM/PARP inhibitor combination; assay type: cell-based; conditions: KU-0059436 plus KU-60019
# Description: as §3
# Chain of PARP-3 (Q9Y6F1 whole entry, species assumed): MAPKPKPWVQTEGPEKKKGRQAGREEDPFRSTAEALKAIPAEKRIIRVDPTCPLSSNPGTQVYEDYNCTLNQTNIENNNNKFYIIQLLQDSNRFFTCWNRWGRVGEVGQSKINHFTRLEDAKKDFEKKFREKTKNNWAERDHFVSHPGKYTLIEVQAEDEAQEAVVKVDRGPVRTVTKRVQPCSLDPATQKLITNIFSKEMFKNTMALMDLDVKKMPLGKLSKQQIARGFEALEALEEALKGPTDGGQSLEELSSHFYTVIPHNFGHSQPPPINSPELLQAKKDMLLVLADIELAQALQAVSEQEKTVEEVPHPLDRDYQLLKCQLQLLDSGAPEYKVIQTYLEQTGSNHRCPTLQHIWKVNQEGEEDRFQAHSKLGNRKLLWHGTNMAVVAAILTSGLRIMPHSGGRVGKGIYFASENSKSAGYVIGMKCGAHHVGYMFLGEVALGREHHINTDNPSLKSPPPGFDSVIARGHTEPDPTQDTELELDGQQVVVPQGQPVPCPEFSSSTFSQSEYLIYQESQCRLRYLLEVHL
# Chain of vault PARP (Q9UKK3 whole entry): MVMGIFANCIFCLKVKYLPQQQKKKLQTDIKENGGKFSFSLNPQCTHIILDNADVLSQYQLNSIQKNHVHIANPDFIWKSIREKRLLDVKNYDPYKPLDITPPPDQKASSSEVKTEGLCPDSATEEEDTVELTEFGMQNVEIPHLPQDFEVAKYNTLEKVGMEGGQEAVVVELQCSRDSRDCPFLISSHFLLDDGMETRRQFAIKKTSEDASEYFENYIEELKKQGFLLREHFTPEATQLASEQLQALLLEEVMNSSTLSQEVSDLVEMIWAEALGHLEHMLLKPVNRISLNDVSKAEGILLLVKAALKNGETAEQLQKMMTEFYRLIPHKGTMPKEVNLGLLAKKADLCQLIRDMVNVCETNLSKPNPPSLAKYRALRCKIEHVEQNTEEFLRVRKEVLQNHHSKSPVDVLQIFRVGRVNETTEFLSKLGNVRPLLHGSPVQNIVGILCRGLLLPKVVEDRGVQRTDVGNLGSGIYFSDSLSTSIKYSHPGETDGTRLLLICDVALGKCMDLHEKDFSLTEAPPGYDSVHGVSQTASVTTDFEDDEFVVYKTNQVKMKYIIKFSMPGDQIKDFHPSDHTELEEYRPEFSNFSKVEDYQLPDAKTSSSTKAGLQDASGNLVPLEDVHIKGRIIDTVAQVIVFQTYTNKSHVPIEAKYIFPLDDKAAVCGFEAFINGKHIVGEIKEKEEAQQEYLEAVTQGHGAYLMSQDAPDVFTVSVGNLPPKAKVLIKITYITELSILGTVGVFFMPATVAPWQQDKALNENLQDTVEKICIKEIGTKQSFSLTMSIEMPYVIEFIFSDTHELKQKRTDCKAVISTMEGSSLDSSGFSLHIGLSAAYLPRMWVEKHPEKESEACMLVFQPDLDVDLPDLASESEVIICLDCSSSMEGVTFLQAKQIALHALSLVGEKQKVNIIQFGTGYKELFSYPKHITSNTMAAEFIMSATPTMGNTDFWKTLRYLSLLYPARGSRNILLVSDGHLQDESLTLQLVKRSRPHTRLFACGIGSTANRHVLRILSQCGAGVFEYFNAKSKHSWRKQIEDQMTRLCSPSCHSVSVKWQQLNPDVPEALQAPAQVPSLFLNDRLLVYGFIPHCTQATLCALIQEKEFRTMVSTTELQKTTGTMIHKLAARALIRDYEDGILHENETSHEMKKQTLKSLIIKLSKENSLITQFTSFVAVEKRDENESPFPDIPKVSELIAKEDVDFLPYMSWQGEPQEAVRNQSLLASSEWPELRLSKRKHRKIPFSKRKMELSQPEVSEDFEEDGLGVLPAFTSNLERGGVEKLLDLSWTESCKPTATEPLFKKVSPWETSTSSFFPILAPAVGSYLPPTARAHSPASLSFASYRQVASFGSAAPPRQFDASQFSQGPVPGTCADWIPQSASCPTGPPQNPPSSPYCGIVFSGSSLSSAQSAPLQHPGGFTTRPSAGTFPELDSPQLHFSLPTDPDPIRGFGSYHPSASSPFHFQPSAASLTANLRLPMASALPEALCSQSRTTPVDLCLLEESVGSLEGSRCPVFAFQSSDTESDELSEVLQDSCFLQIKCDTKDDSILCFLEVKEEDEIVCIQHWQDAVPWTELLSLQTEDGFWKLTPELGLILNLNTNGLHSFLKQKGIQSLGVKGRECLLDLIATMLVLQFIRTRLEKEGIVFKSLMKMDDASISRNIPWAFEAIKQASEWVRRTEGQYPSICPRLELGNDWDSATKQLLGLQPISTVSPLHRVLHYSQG
# Chain of PARP-2 (Q9UGN5 whole entry): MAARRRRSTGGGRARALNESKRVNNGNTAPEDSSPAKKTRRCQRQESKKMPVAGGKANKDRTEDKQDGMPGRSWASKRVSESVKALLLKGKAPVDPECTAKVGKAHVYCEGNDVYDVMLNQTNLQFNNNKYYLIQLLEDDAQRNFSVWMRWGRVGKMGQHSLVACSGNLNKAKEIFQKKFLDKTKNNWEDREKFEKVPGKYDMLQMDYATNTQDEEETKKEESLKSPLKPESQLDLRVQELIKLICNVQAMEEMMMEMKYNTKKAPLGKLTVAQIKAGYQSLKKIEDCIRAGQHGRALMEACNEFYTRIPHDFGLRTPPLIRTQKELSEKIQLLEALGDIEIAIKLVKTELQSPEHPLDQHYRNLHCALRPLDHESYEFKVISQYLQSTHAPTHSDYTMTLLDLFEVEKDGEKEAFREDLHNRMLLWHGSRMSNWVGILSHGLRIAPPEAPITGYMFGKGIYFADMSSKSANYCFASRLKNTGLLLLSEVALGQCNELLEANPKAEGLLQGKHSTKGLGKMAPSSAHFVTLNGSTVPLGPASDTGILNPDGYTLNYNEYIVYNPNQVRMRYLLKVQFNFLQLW
structure (smiles),measurement,setting,value
"Cn1c(=O)c2c(ncn2C)n(C)c1=O [Caffeine, reference compound]",sensitivity of HeLa cells to PARP inhibitor with caffeine,HeLa cells,increased sensitivity
O=C(c1cc(Cc2n[nH]c(=O)c3ccccc23)ccc1F)N1CCCNCC1 [KU0058948],inhibition of poly(ADP-ribose) polymerase activity of PARP-1 and PARP-2,PARP-2,potent and specific inhibitors
same,inhibition of vault PARP,vault PARP,do not inhibit
same,inhibition of PARP-3,PARP-3,do not inhibit
same,sensitivity of Brca1 mutant cells relative to KU0058684,Brca1 deficient ES cells,even greater than that of KU0058684
same,sensitivity of Brca1 deficient cells compared to otherwise isogenic cells,Brca1 deficient ES cells; clonogenic assay,extremely sensitive
same,sensitivity of Brca2 mutant cells relative to KU0058684,Brca2 deficient ES cells,even greater than that of KU0058684
same,sensitivity of Brca2 deficient cells compared to otherwise isogenic cells,Brca2 deficient ES cells; clonogenic assay,extremely sensitive
same,clonogenic survival of RAD51 siRNA transfected cells compared to control transfected cells,[1],significant reduction in the clonogenic survival
same,"sensitivity to PARP inhibition after BRCA1, BRCA2 and RAD51 silencing",[2],profound sensitivity
same,sensitivity of DSS1 and RPA siRNA transfected cells compared to control plasmid,[3],enhanced sensitivity
same,"sensitivity of ATM, ATR, CHK1, CHK2 siRNA transfected HeLa cells compared to control plasmid",[4],increased sensitivity
same,sensitivity of FA gene deficient fibroblasts compared to wild-type cells,[5],results in sensitivity
same,sensitivity of Rad52 deficient ES cells compared to wild-type cells,Rad52 deficient ES cells,no more sensitive
same,inhibition of tankyrase,tankyrase,do not inhibit
O=C(c1cc(Cc2n[nH]c(=O)c3ccccc23)ccc1F)N1CCN(C(=O)C2CC2)CC1 [KU0059436],sensitivity of ATM deficient cells compared to wild-type cells,FT/pEBS7 ATM−/− cells,more sensitive
same,sensitivity of NBS1 deficient cells compared to wild-type cells,NBS1−/− fibroblast cells,more sensitive
same,sensitivity to PARP inhibition with ATM inhibitor combination,HT29 cells,Sensitivity to PARP inhibition was observed to increase with increasing concentrations of ATMI
"C[C@@H]1CN(CC(=O)Nc2ccc3c(c2)Cc2cccc(-c4cc(=O)cc(N5CCOCC5)o4)c2S3)C[C@H](C)O1 [KU-60019, reference compound]",sensitivity to PARP inhibition with ATM inhibitor combination,HT29 cells,Sensitivity to PARP inhibition was observed to increase with increasing concentrations of ATMI
